pIC50: −log10 of the molar value.

Data set [1] deals with Mycobacterium tuberculosis. The experiment in a line: Anti-tuberculosis activity against Mycobacterium tuberculosis H37Rv assessed as inhibition of microbial growth at 6.25 ug/ml by MABA method. The data set is classed as functional. Background: Resazurin is reduced to fluorescent resorufin, in cell work by metabolically active cells.
The test system of data set [2] is Mycobacterium tuberculosis. The data set is described as follows: Anti-tuberculosis activity against Mycobacterium tuberculosis H37Rv assessed as inhibition of microbial growth at 1.56 ug/ml by MABA method. The data set is classed as functional.
In data set [3] the test system is L929. The experiment in a line: Cytotoxicity against mouse L929 cells assessed as reduction cell viability after 5 days by MTT assay. The data set is classed as cell-based. To be noted: l929, 120 h.
Data set [4] deals with Mycobacterium tuberculosis. The data set is described as follows: Anti-tuberculosis activity against Mycobacterium tuberculosis H37Rv assessed as inhibition of microbial growth by MABA method. The data set is classed as functional, organism-based.
Data set [5] concerns Mycobacterium tuberculosis. The data set is described as follows: Anti-tuberculosis activity against Mycobacterium tuberculosis H37Rv assessed as inhibition of microbial growth at 3.125 ug/ml by MABA method. The data set is classed as functional.

The term inhibition denotes the change of the read-out against control, counted positive when it falls. Regarding `COC(=O)c1ccc2ccccc2n1`, the inhibition at 6.25 µg/mL in data set [1] was at least 90%.

As a reminder, the pIC50 is the IC50 on a negative log10 scale, so that one unit is a factor of ten. The MIC90 is an inhibitory concentration at the 90% level, which refers to growth in some studies and to a panel of isolates in others. Consider `NNC(=O)c1cc(C23CC4CC(CC(C4)C2)C3)c2ccccc2n1`, for which the inhibition at 1.56 µg/mL in data set [2] amounted to 80%. Moreover, the inhibition at 6.25 µg/mL in data set [1] came to 99%. For the same compound, the Activity in data set [3] was above 200 µg/mL. Further, in data set [4], the pIC50 was 6.41 and the MIC90 is 3.12 µg/mL. Moreover, the inhibition at 3.125 µg/mL in data set [5] was 99%.

For the compound `CCCCC(O)c1cc(C23CC4CC(CC(C4)C2)C3)c2ccccc2n1` (centres undefined), the inhibition at 6.25 µg/mL in data set [1] turned out to be 91%. In addition, the Activity in data set [3] is above 200 µg/mL. Also, in data set [4], the pIC50 is 5.66 and the MIC90 came to 6.25 µg/mL.

Take `NNC(=O)c1cc(CC2CC3CCC2C3)c2ccccc2n1` (centres undefined): the inhibition at 6.25 µg/mL in data set [1] turned out to be 92%. Moreover, the Activity in data set [3] is above 200 µg/mL. Also, in data set [4], the pIC50 is 5.71 and the MIC90 was 6.25 µg/mL.

As to `CC1CCCCC1c1cc(C(=O)NN)nc2ccccc12` (centres undefined), the inhibition at 1.56 µg/mL in data set [2] came to 77%. In data set [1], the inhibition at 6.25 µg/mL was 99%. For the same compound, the Activity in data set [3] was above 200 µg/mL. Besides, in data set [4], the pIC50 was 6.34 and the MIC90 was 3.12 µg/mL. Besides, the inhibition at 3.125 µg/mL in data set [5] was found to be 99%.

As for `CC(C)(C)C1CCC(c2cc(C(=O)NN)nc3ccccc23)CC1` (centres undefined), in data set [2], the inhibition at 1.56 µg/mL was found to be 82%. Moreover, the inhibition at 6.25 µg/mL in data set [1] came out at 99%. The Activity in data set [3] is above 200 µg/mL. In data set [4], the pIC50 was 6.46 and the MIC90 was found to be 3.12 µg/mL. The inhibition at 3.125 µg/mL in data set [5] worked out at 99%.

With `CC1CCC(c2cc(C(=O)NN)nc3ccccc23)CC1` (centres undefined), the inhibition at 6.25 µg/mL in data set [1] worked out at 84%. Besides, the Activity in data set [3] was above 200 µg/mL. In addition, in data set [4], the pIC50 was 5.45 and the MIC90 is 6.25 µg/mL.

In the case of `NNC(=O)c1cc(C2CCC(C(F)(F)F)CC2)c2ccccc2n1` (centres undefined), the inhibition at 6.25 µg/mL in data set [1] amounted to 89%. Further, the Activity in data set [3] was above 200 µg/mL. Further, in data set [4], the pIC50 is 5.56 and the MIC90 was 6.25 µg/mL.

For the compound `COC1CCCC(c2cc(C(=O)NN)nc3ccccc23)C1` (centres undefined), the inhibition at 6.25 µg/mL in data set [1] was 90%. In addition, the Activity in data set [3] was above 200 µg/mL. In data set [4], the pIC50 was 5.53 and the MIC90 turned out to be 6.25 µg/mL.

Take `CO[C@H]1CC[C@H](c2cc(C(=O)NN)nc3ccccc32)CC1`: the inhibition at 6.25 µg/mL in data set [1] was 32%. Moreover, the Activity in data set [3] is above 200 µg/mL. For the same compound, in data set [4], the pIC50 was 4.49 and the MIC90 was 6.25 µg/mL.

For the compound `CO[C@H]1CC[C@@H](c2cc(C(=O)NN)nc3ccccc32)CC1`, the inhibition at 6.25 µg/mL in data set [1] was found to be 90%. In data set [3], the Activity is above 200 µg/mL. For the same compound, in data set [4], the pIC50 is 5.63 and the MIC90 was determined as 6.25 µg/mL.

As to `C=CCC(O)c1cc(C23CC4CC(CC(C4)C2)C3)c2ccccc2n1` (centres undefined), the inhibition at 6.25 µg/mL in data set [1] was determined as 44%. Further, the Activity in data set [3] is above 200 µg/mL. For the same compound, in data set [4], the pIC50 was 4.64 and the MIC90 worked out at 6.25 µg/mL.

In the case of `OC(c1ccccc1)c1cc(C23CC4CC(CC(C4)C2)C3)c2ccccc2n1` (centres undefined), in data set [1], the inhibition at 6.25 µg/mL turned out to be 86%. Further, the Activity in data set [3] is above 200 µg/mL. In data set [4], the pIC50 was 5.51 and the MIC90 turned out to be 6.25 µg/mL.

`COc1ccc(C(O)c2cc(C34CC5CC(CC(C5)C3)C4)c3ccccc3n2)cc1` (centres undefined): the inhibition at 6.25 µg/mL in data set [1] is 47%. The Activity in data set [3] is above 200 µg/mL. In data set [4], the pIC50 is 4.08 and the MIC90 turned out to be 6.25 µg/mL.

In the case of `Cc1ccc(C(O)c2cc(C34CC5CC(CC(C5)C3)C4)c3ccccc3n2)cc1` (centres undefined), the inhibition at 6.25 µg/mL in data set [1] came out at 76%. The Activity in data set [3] is above 200 µg/mL. Moreover, in data set [4], the pIC50 is 5.30 and the MIC90 stood at 6.25 µg/mL.

`OC(c1ccc(F)cc1)c1cc(C23CC4CC(CC(C4)C2)C3)c2ccccc2n1` (centres undefined): the inhibition at 1.56 µg/mL in data set [2] amounted to 69%. In addition, the inhibition at 6.25 µg/mL in data set [1] was found to be 99%. Moreover, the Activity in data set [3] was above 200 µg/mL. Further, in data set [4], the pIC50 was 6.50 and the MIC90 was 3.12 µg/mL. In addition, in data set [5], the inhibition at 3.125 µg/mL was determined as 99%.

For `CN(C)c1ccc(C(O)c2cc(C34CC5CC(CC(C5)C3)C4)c3ccccc3n2)cc1` (centres undefined), in data set [1], the inhibition at 6.25 µg/mL is 4%. The Activity in data set [3] was above 200 µg/mL. Besides, in data set [4], the pIC50 is 3.48 and the MIC90 turned out to be 6.25 µg/mL.

In the case of `CCC(O)c1cc(C23CC4CC(CC(C4)C2)C3)c2ccccc2n1` (centres undefined), the inhibition at 6.25 µg/mL in data set [1] is 73%. In data set [3], the Activity is above 200 µg/mL. Also, in data set [4], the pIC50 was 5.16 and the MIC90 was determined as 6.25 µg/mL.

Regarding `CCCC(O)c1cc(C23CC4CC(CC(C4)C2)C3)c2ccccc2n1` (centres undefined), the inhibition at 6.25 µg/mL in data set [1] amounted to 86%. In data set [3], the Activity was above 200 µg/mL. In addition, in data set [4], the pIC50 is 5.35 and the MIC90 is 6.25 µg/mL.

As for `OC(c1cc(C23CC4CC(CC(C4)C2)C3)c2ccccc2n1)c1cccc2ccccc12` (centres undefined), the inhibition at 6.25 µg/mL in data set [1] came to 9%. Further, the Activity in data set [3] is above 200 µg/mL. For the same compound, in data set [4], the pIC50 was 3.74 and the MIC90 is 6.25 µg/mL.

Turning to `O=C(c1cc(C23CC4CC(CC(C4)C2)C3)c2ccccc2c1)N1CCNCC1`, in data set [1], the inhibition at 6.25 µg/mL was found to be 82%. In addition, the Activity in data set [3] was above 200 µg/mL. For the same compound, in data set [4], the pIC50 is 5.51 and the MIC90 was 6.25 µg/mL.

Regarding `O=C(NC1CCN(Cc2ccccc2)CC1)c1cc(C23CC4CC(CC(C4)C2)C3)c2ccccc2c1`, in data set [1], the inhibition at 6.25 µg/mL worked out at 90%. For the same compound, in data set [3], the Activity is above 200 µg/mL. Besides, in data set [4], the pIC50 is 5.82 and the MIC90 was determined as 6.25 µg/mL.

Consider `CN1CCN(C(=O)c2cc(C34CC5CC(CC(C5)C3)C4)c3ccccc3c2)CC1`, for which the inhibition at 6.25 µg/mL in data set [1] turned out to be 87%. The Activity in data set [3] is above 200 µg/mL. Moreover, in data set [4], the negative logarithm of the IC50 (pIC50) was 5.23 and the MIC90 came to 6.25 µg/mL.

As for `O=C(c1cc(C23CC4CC(CC(C4)C2)C3)c2ccccc2c1)N1CCCCC1`, in data set [1], the inhibition at 6.25 µg/mL is 9%. For the same compound, the Activity in data set [3] was above 200 µg/mL. Further, in data set [4], the pIC50 was 3.92 and the MIC90 amounted to 6.25 µg/mL.

For the compound `O=C(c1cc(C23CC4CC(CC(C4)C2)C3)c2ccccc2c1)N1CCN(c2ccccn2)CC1`, in data set [1], the inhibition at 6.25 µg/mL was 8%. Besides, the Activity in data set [3] was above 200 µg/mL. Moreover, in data set [4], the pIC50 was 4.20 and the MIC90 came out at 6.25 µg/mL.

Take `O=C(c1cc(C23CC4CC(CC(C4)C2)C3)c2ccccc2c1)N1CCCC1`: the inhibition at 6.25 µg/mL in data set [1] was found to be 53%. Besides, in data set [3], the Activity is above 200 µg/mL. Besides, in data set [4], the pIC50 was 4.88 and the MIC90 was found to be 6.25 µg/mL.

Take `O=C(c1cc(C23CC4CC(CC(C4)C2)C3)c2ccccc2c1)N1CCOCC1`: the inhibition at 6.25 µg/mL in data set [1] turned out to be 14%. The Activity in data set [3] is above 200 µg/mL. Moreover, in data set [4], the pIC50 is 3.96 and the MIC90 was found to be 6.25 µg/mL.

For the compound `O=C(c1cc(C23CC4CC(CC(C4)C2)C3)c2ccccc2c1)N1CCN(c2ccccc2)CC1`, the inhibition at 6.25 µg/mL in data set [1] stood at 90%. Besides, the Activity in data set [3] was above 200 µg/mL. In data set [4], the pIC50 was 6.06 and the MIC90 stood at 6.25 µg/mL.

On to `O=C(NO)c1cc(C23CC4CC(CC(C4)C2)C3)c2ccccc2c1`, for which, in data set [1], the inhibition at 6.25 µg/mL turned out to be 91%. The Activity in data set [3] was above 200 µg/mL. In data set [4], the pIC50 was 5.93 and the MIC90 is 6.25 µg/mL.

For the compound `COC(=O)c1cc(C23CC4CC(CC(C4)C2)C3)c2ccccc2n1`, the inhibition at 6.25 µg/mL in data set [1] was at least 90%.

Broadly, the MIC99 is an inhibitory concentration at the 99% level, which refers to growth in some studies and to a panel of isolates in others. For `NNC(=O)c1ccncc1` [ISONIAZID], the MIC99 in data set [4] is 0.1 µg/mL.

On to `CO[C@H]1/C=C/O[C@@]2(C)Oc3c(C)c(O)c4c(O)c(c(/C=N/N5CCN(C)CC5)c(O)c4c3C2=O)NC(=O)/C(C)=C\C=C\[C@H](C)[C@H](O)[C@@H](C)[C@@H](O)[C@@H](C)[C@H](OC(C)=O)[C@@H]1C` [RIFAMPIN], for which the MIC99 in data set [4] amounted to 0.2 µg/mL.
